# Laboratory results from patent US8785429B2, “Dihydropyrrolonaphthyridinone compounds as inhibitors of JAK” (Takeda Pharmaceutical Company Limited, priority 2009, dated 2014).
# Tests used:
# JAK3 = molecular target: T1, JAK3 (Homo sapiens, UniProt P52333); test: Assay for JAK3 Inhibition (phosphorylation of FAM-labeled substrate, Caliper LC-3000); format: biochemical; conditions: −log10(IC50), IC50 is the molar concentration at 50% inhibition; read-out: JAK3 pIC50 (converted)
# T1 construct: purchased Invitrogen
# T1 sequence (P52333 1-1124): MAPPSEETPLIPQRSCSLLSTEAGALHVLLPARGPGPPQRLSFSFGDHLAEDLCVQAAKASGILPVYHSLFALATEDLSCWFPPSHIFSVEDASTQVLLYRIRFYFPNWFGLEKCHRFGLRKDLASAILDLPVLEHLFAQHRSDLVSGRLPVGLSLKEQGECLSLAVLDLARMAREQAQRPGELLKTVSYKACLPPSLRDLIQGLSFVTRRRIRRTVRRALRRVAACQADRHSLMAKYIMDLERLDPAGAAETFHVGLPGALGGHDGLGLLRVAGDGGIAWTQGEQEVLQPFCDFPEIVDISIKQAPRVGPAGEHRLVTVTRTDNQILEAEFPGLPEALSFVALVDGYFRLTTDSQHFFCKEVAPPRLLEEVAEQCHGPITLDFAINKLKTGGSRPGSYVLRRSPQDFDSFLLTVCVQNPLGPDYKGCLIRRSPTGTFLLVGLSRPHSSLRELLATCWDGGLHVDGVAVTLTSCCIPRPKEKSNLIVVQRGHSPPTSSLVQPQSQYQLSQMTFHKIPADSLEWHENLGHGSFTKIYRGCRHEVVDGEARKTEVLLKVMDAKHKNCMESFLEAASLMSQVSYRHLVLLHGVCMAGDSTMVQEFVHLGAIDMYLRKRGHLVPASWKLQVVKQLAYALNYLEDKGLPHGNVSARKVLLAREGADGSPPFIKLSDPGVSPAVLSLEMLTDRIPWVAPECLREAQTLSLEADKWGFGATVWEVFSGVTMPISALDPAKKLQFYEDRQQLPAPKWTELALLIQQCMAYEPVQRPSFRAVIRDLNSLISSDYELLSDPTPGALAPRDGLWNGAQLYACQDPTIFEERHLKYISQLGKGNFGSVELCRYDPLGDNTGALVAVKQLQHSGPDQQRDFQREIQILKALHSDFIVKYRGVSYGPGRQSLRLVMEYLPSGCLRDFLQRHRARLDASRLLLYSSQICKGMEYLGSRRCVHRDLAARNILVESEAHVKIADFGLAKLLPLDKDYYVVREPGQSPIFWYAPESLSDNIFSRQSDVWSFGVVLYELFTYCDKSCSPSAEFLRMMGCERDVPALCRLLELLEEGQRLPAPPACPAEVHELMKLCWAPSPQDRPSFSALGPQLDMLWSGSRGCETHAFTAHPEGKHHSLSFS
# Experimental: (§1) A compound's ability to inhibit JAK activity may be assessed using a variety of methods, including in vitro and in vivo assays. The following in vitro assays measure a test compound's ability to inhibit JAK2- and JAK3-mediated phosphorylation of FAM-labeled JAK-specific substrates.
# (§2) Purified JAK2 and JAK3 proteins were purchased from Invitrogen. JAK2 and JAK3 inhibition is determined using a black 384-well-plate format in buffer containing 50 mM HEPES, 10 mM NaCl, 10 mM MgCl2, 0.2 mM EDTA, 0.01% EDA (Brij® 35), 1 mM DTT, 0.1 mg/mL BSA at pH 7.3. Each test compound is prepared in DMSO using 2-fold serial dilutions for 11 data points and is added to the buffer so that each dilution contains 3% DMSO.
# (§3) To each well is added 2 μL of 3 μM 5FAM-KKKKEEIYFFFG-NH2 and 15 μM ATP (in buffer), 2 μL of diluted test compound (3% DMSO in medium), and 2 μL of 1.2 nM JAK3 in buffer. The reaction mixture is incubated at room temperature for 60 min and is quenched by adding 50 mM HEPES, 30 mM EDTA, and 0.1% Tx-100 (pH 7.3). To quantify the fluorescent-labeled substrate and product following reaction, the test plate is loaded on a Caliper LC-3000, which measures percent of conversion by microfluidic-based separation.
# (§4) Corresponding IC50 values are calculated by non-linear curve fitting of the compound concentrations and percent of inhibition to the standard IC50 equation.
# JAK2 = molecular target: T2, JAK2 (Homo sapiens, UniProt O60674); test: Assay for JAK2 Inhibition (phosphorylation of FAM-labeled substrate, Caliper LC-3000); format: biochemical; conditions: −log10(IC50), IC50 is the molar concentration at 50% inhibition; read-out: JAK2 pIC50 (converted)
# T2 construct: purchased Invitrogen
# T2 sequence (O60674 whole entry): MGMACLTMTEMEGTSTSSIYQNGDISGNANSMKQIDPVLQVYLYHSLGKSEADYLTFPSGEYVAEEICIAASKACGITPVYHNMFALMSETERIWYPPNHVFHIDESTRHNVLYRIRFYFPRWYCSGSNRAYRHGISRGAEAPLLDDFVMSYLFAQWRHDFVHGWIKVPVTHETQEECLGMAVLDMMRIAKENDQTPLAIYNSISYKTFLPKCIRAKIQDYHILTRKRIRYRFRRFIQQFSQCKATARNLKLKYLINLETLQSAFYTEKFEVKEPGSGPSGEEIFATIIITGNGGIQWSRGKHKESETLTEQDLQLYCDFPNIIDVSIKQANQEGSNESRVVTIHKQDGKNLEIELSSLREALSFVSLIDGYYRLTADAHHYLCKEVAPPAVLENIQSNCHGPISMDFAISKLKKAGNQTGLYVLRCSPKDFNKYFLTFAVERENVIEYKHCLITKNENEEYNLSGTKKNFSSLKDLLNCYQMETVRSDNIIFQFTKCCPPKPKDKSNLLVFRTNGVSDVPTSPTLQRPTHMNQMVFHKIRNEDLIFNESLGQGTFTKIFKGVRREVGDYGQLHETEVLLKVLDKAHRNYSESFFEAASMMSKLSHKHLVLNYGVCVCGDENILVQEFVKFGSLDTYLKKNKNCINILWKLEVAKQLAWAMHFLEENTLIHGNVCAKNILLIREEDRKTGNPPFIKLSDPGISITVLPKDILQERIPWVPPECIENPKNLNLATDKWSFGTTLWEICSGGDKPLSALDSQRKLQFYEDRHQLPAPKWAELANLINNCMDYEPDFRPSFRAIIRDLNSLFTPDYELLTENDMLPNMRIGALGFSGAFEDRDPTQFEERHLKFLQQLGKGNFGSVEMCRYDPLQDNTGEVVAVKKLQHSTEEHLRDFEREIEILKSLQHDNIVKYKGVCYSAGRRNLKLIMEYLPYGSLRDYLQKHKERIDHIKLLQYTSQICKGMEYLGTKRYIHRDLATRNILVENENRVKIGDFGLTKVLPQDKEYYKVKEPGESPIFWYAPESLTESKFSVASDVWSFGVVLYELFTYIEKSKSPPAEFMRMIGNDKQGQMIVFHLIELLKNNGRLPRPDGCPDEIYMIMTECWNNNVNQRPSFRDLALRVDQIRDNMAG
# Experimental: as §1, §2
# as §3, with “45” for “15”, “0.6” for “1.2”, “JAK2” for “JAK3”, “HEPeX,” for “HEPES,”
# as §4
IC50 (JAK3) [nM],IC50 (JAK2) [nM],Compound
63.1,2000,"CC(C)[C@H](C(=O)NC1CCS(=O)(=O)C1)N1Cc2c(F)cnc3[nH]cc(c23)C1=O (stereo partly drawn) [Example 45, (R)-2-(6-fluoro-3-oxopyrrolo[4,3,2-de][2,6]naphthyridin-4(1H,3H,5H)-yl)-3-methyl-N-(1,1-dioxidotetrahydrothien-3-yl)butanamide]"
251,1580,"CC(C)[C@H](C(=O)NCCS(C)(=O)=O)N1Cc2c(F)cnc3[nH]cc(c23)C1=O [Example 46, (R)-2-(6-fluoro-3-oxopyrrolo[4,3,2-de][2,6]naphthyridin-4(1H,3H,5H)-yl)-3-methyl-N-(2-(methylsulfonyl)ethyl)butanamide]"
126,2510,"CC(C)[C@H](C(=O)NC1CCS(=O)(=O)CC1)N1Cc2c(F)cnc3[nH]cc(c23)C1=O [Example 47, (R)—N-(1,1-dioxidotetrahydro-2H-thiopyran-4-yl)-2-(6-fluoro-3-oxopyrrolo[4,3,2-de][2,6]naphthyridin-4(1H,3H,5H)-yl)-3-methylbutanamide]"
251,5010,"CC(C)[C@H](C(=O)N1CCS(=O)(=O)CC1)N1Cc2c(F)cnc3[nH]cc(c23)C1=O [Example 48, 4-{(1R)-1-[(1,1-dioxidothiomorpholin-4-yl)carbonyl]-2-methylpropyl}-6-fluoro-4,5-dihydropyrrolo[4,3,2-de][2,6]naphthyridin-3(1H)-one]"
100,2000,"CC(C)[C@H](C(=O)NOCC1CC1)N1Cc2c(F)cnc3[nH]cc(c23)C1=O [Example 49, (R)—N-(cyclopropylmethoxy)-2-(6-fluoro-3-oxopyrrolo[4,3,2-de][2,6]naphthyridin-4(1H,3H,5H)-yl)-3-methylbutanamide]"
79.4,1580,"CC(C)[C@H](C(=O)NC1CCC(F)(F)C1)N1Cc2c(F)cnc3[nH]cc(c23)C1=O (stereo partly drawn) [Example 50, (2R)—N-(3,3-difluorocyclopentyl)-2-(6-fluoro-3-oxopyrrolo[4,3,2-de][2,6]naphthyridin-4(1H,3H,5H)-yl)-3-methylbutanamide]"
5.01,158,"CC(C)[C@H](C(=O)N1CC(C#N)(CF)C1)N1Cc2ccnc3[nH]cc(c23)C1=O [Example 51, (R)-3-(fluoromethyl)-1-(3-methyl-2-(3-oxopyrrolo[4,3,2-de][2,6]naphthyridin-4(1H,3H,5H)-yl)butanoyl)azetidine-3-carbonitrile]"
10,200,"CC(C)[C@H](C(=O)N1CC(C)(C#N)C1)N1Cc2c(F)cnc3[nH]cc(c23)C1=O [Example 52, (R)-1-(2-(6-fluoro-3-oxopyrrolo[4,3,2-de][2,6]naphthyridin-4(1H,3H,5H)-yl)-3-methylbutanoyl)-3-methylazetidine-3-carbonitrile]"
12.6,251,"CC(C)[C@H](C(=O)N1CC(C)(C#N)C1)N1Cc2ccnc3[nH]cc(c23)C1=O [Example 53, (R)-3-methyl-1-(3-methyl-2-(3-oxopyrrolo[4,3,2-de][2,6]naphthyridin-4(1H,3H,5H)-yl)butanoyl)azetidine-3-carbonitrile]"
2000,31600,"CC[C@H](C(=O)N1CCOCC1)N1Cc2ccnc3[nH]cc(c23)C1=O [Example 54, (R)-4-(1-morpholino-1-oxobutan-2-yl)-4,5-dihydropyrrolo[4,3,2-de][2,6]naphthyridin-3(1 H)-one]"
1000,12600,"CC[C@H](C(=O)N1CCN(C)CC1)N1Cc2ccnc3[nH]cc(c23)C1=O [Example 55, (R)-4-(1-(4-methylpiperazin-1-yl)-1-oxobutan-2-yl)-4,5-dihydropyrrolo[4,3,2-de][2,6]naphthyridin-3(1 H)-one]"
631,10000,"CC[C@H](C(=O)N1CCC(O)C1)N1Cc2ccnc3[nH]cc(c23)C1=O (stereo partly drawn) [Example 56, 4-((2R)-1-(3-hydroxypyrrolidin-1-yl)-1-oxobutan-2-yl)-4,5-dihydropyrrolo[4,3,2-de][2,6]naphthyridin-3(1 H)-one]"
79.4,1580,"CC[C@H](C(=O)NC1CCCC1)N1Cc2ccnc3[nH]cc(c23)C1=O [Example 57, (R)—N-cyclopentyl-2-(3-oxopyrrolo[4,3,2-de][2,6]naphthyridin-4(1H,3H,5H)-yl)butanamide]"
316,3160,"CC[C@H](C(=O)N1CCC(c2ccc(F)cc2)C1)N1Cc2ccnc3[nH]cc(c23)C1=O (stereo partly drawn) [Example 58, 4-((2R)-1-(3-(4-fluorophenyl)pyrrolidin-1-yl)-1-oxobutan-2-yl)-4,5-dihydropyrrolo[4,3,2-de][2,6]naphthyridin-3(1 H)-one]"
6310,20000,"CC[C@H](C(=O)N1CCC(N(C)C)C1)N1Cc2ccnc3[nH]cc(c23)C1=O (stereo partly drawn) [Example 59, 4-((2R)-1-(3-(dimethylamino)pyrrolidin-1-yl)-1-oxobutan-2-yl)-4,5-dihydropyrrolo[4,3,2-de][2,6]naphthyridin-3(1 H)-one]"
794,10000,"CC[C@H](C(=O)N1CCC(COC)C1)N1Cc2ccnc3[nH]cc(c23)C1=O (stereo partly drawn) [Example 60, 4-((2R)-1-(3-(methoxymethyl)pyrrolidin-1-yl)-1-oxobutan-2-yl)-4,5-dihydropyrrolo[4,3,2-de][2,6]naphthyridin-3(1 H)-one]"
6310,20000,"CC[C@H](C(=O)N1CCCC(C)C1)N1Cc2ccnc3[nH]cc(c23)C1=O (stereo partly drawn) [Example 61, 4-((2R)-1-(3-methylpiperidin-1-yl)-1-oxobutan-2-yl)-4,5-dihydropyrrolo[4,3,2-de][2,6]naphthyridin-3(1 H)-one]"
1580,12600,"CC[C@H](C(=O)N1CCC(C(C)(C)O)CC1)N1Cc2ccnc3[nH]cc(c23)C1=O [Example 62, (R)-4-(1-(4-(2-hydroxypropan-2-yl)piperidin-1-yl)-1-oxobutan-2-yl)-4,5-dihydropyrrolo[4,3,2-de][2,6]naphthyridin-3(1 H)-one]"
631,6310,"CC[C@H](C(=O)N1CCN(S(C)(=O)=O)CC1)N1Cc2ccnc3[nH]cc(c23)C1=O [Example 63, (R)-4-(1-(4-(methylsulfonyl)piperazin-1-yl)-1-oxobutan-2-yl)-4,5-dihydropyrrolo[4,3,2-de][2,6]naphthyridin-3(1 H)-one]"
2510,20000,"CC[C@H](C(=O)N1CCN(c2ccccn2)CC1)N1Cc2ccnc3[nH]cc(c23)C1=O [Example 64, (R)-4-(1-oxo-1-(4-(pyridin-2-yl)piperazin-1-yl)butan-2-yl)-4,5-dihydropyrrolo[4,3,2-de][2,6]naphthyridin-3(1 H)-one]"
2000,6310,"CC[C@H](C(=O)NC1CC1)N1Cc2ccnc3[nH]cc(c23)C1=O [Example 65, (R)—N-cyclopropyl-2-(3-oxopyrrolo[4,3,2-de][2,6]naphthyridin-4(1H,3H,5H)-yl)butanamide]"
